These results are taken from patent US20070276025A1, “Indirubin-Type Compounds, Compositions, and Methods for Their Use” (priority 2003, published 2007).

For data set [1], the target named is CDK1/cyclin B. The experiment in a line: CDK1/cyclin B kinase assay (histone H1, 15 μM ATP). Format: biochemical, starfish (Marthasterias glacialis).
For data set [2], the system named is 5L (AhR +/+) hepatoma cells. The experiment in a line: FACS cell cycle analysis, 5L cells. Format: cell-based, mouse. To be noted: 10 μM indirubins or 100 nM TCDD, 24 hr.
The target of data set [3] is CDK5/p25 (Homo sapiens, UniProt Q00535). The experiment in a line: CDK5/p25 kinase assay (histone H1, 15 μM ATP). Format: biochemical, mammalian. To be noted: read-out: IC50 CDK5/p25.
Chain of CDK5/p25 (Q00535 whole entry, species assumed): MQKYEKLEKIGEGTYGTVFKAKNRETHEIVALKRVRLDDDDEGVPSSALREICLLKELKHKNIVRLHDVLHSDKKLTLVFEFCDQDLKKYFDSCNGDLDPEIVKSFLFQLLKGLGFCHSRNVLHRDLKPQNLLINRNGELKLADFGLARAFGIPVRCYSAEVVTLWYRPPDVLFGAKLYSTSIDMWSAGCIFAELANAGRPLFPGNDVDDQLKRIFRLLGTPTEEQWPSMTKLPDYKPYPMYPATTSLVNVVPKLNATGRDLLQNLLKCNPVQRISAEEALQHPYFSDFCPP
Chain of CDK5/p25 (Q15078 99-307 partner limits assumed, species assumed): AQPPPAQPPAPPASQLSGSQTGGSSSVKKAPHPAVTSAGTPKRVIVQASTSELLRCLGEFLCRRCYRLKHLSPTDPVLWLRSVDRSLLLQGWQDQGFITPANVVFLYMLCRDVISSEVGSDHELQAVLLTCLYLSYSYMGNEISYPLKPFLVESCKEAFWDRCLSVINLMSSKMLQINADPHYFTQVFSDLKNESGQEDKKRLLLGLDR
For data set [4], the system named is 5L (AhR +/+) hepatoma cells. The experiment in a line: Cell viability MTT assay, 5L cells. Format: cell-based, mouse. To be noted: range of concentrations, 24 and 48 hr.
The subject of data set [5] is BP8 (AhR −/−) hepatoma cells. As to the kind of experiment: FACS cell cycle analysis, BP8 cells. The format is cell-based, mouse. To be noted: 10 μM indirubins or 100 nM TCDD, 24 hr. The procedure:
Flow cytometry analysis (Coulter EPIX XL2, Beckman, Calif., USA) of cellular DNA content was performed on ethanol-fixed cell suspensions after ribonuclease A III treatment (Sigma) and propidium iodide (Sigma) staining, as previously described (French et al. (1985) Cytometry 6: 47-53). Percentages of cells in G0/G1, S and G2/M phases of cell cycle were then calculated on the basis of DNA distribution histograms provided by the software manufacturer.
Both 5L and BP8 cell lines were treated with 10 μM IO, MeIO, BIO, MeBIO or 100 nM TCDD for 24 hr.

For data set [6], the system named is BP8 (AhR −/−) hepatoma cells. The experiment in a line: Cell proliferation by direct counting, BP8 cells. Format: cell-based, mouse. To be noted: 20 μM, 24 and 48 hr. The procedure:
(§1) The protocol followed was similar to those previously described in Weiss C, Kolluri S K, Kiefer F and Göttlicher M. (1996). Exp. Cell Res., 226, 154-163, and Kolluri S K, Weiss C, Koff A and Gbttlicher M. (1999). Genes & Dev., 13, 1742-1753. The mouse 5L hepatoma cell line (AhR +/+) and BP8 (an AhR −/− subclone) were kindly provided by Dr. M. Gottlicher (Forschungszentrun Karlsruhe, Institute of Genetics, 76021 Karlsruhe, Germany). Cells were cultured in Dulbecco's modified Eagle medium (DMEM) (Biowhittaker) supplemented with 2 mM L-glutamine (Eurobio), 10% fetal calf serum (FCS), and gentamycin (Gibco BRL) at 37° C. in an atmosphere of 7% CO2. […] Control experiments were carried out using appropriate dilutions of DMSO.
(§2) The effects of IO and MeOO (20 μM) on the proliferation rate of 5L and BP8 cell lines was determined by counting directly the number of live cells after 24 and 48 hr of exposure to the indirubins (FIG. 17).

The subject of data set [7] is p27^KIP1 in 5L (AhR +/+) cells. As to the kind of experiment: p27KIP1 expression by Western blotting, 5L cells. Format: cell-based, mouse. To be noted: 10 μM indirubins or 0.1 μM TCDD, 24 hr.
The target of data set [8] is T1, AhR (Mus musculus, UniProt P30561).
T1 sequence (P30561 1-848): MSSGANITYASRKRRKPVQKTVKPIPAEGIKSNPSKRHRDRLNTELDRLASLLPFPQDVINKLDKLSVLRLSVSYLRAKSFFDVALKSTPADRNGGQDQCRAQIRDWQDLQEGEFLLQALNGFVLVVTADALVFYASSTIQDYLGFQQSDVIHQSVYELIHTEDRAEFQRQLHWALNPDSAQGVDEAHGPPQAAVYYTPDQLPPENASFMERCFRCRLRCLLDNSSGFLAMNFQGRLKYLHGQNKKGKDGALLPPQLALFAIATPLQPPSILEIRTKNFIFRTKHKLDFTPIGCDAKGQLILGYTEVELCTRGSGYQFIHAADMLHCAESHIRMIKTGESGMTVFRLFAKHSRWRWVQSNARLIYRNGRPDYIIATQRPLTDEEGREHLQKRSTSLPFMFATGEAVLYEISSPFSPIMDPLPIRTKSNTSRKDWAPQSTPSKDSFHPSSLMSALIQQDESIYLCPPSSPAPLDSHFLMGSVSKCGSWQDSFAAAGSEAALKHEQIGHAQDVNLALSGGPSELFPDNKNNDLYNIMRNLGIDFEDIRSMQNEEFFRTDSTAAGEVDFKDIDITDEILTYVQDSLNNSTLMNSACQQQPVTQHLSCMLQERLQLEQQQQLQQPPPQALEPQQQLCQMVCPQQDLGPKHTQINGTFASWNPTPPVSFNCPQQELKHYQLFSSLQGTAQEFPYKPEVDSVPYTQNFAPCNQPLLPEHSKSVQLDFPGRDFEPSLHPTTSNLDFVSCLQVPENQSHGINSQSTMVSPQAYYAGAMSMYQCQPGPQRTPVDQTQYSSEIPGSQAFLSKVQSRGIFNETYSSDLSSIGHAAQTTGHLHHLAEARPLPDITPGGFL
To be noted: read-out: EC50 AhR (hepatoma cell line); Table 4; EGFP at 24 hours.

The test system of data set [9] is 5L (AhR +/+) hepatoma cells. As to the kind of experiment: Cell proliferation by direct counting, 5L cells. Format: cell-based, mouse. To be noted: 20 μM, 24 and 48 hr. The procedure:
as §1, §2

Data set [10] deals with GSK-3α/β. The experiment in a line: GSK-3α/β kinase assay (GS-1 peptide, 15 μM ATP). Format: biochemical, porcine.
For data set [11], the system named is GSK-3α (Tyr276) / GSK-3β (Tyr216). As to the kind of experiment: Tyrosine phosphorylation of GSK-3 in SH-SY5Y cells (Western blot). The format is cell-based, human. To be noted: 1 μM, 12 hr. From the text: GSK-3α and GSK-3β activity is enhanced by the phosphorylation of a specific tyrosine residue (Tyr276 and Tyr216, respectively) (Hughes et al. (1993) EMBO J. 12: 803-808; Dajani et al. (2003) EMBO J. 22: 494-501). The tyrosine kinase responsible for this phosphorylation in mammals is unknown, but there is some evidence that it indirectly depends on GSK-3 activity (Bhat et al. (2000) Proc. Natl. Acad. Sci. U.S.A. 97: 11074-11079; Shaw et al. (1997) FEBS Lett. 416: 307-311). […] SH-SY5Y cells were exposed to IO, MeIO, BIO and MeBIO for 12 hr and the phosphorylation of Tyr276 (GSK-3α) and Tyr216 (GSK-3β) was estimated by Western blotting with phospho-specific antibodies. […] This was accompanied by an increased level in total GSK-3β, total β-catenin, and dephospho-&catenin.

The target in data set [12] is AhR (Homo sapiens, UniProt P35869).
Chain of AhR (Homo sapiens, UniProt P35869) (P35869 11-848): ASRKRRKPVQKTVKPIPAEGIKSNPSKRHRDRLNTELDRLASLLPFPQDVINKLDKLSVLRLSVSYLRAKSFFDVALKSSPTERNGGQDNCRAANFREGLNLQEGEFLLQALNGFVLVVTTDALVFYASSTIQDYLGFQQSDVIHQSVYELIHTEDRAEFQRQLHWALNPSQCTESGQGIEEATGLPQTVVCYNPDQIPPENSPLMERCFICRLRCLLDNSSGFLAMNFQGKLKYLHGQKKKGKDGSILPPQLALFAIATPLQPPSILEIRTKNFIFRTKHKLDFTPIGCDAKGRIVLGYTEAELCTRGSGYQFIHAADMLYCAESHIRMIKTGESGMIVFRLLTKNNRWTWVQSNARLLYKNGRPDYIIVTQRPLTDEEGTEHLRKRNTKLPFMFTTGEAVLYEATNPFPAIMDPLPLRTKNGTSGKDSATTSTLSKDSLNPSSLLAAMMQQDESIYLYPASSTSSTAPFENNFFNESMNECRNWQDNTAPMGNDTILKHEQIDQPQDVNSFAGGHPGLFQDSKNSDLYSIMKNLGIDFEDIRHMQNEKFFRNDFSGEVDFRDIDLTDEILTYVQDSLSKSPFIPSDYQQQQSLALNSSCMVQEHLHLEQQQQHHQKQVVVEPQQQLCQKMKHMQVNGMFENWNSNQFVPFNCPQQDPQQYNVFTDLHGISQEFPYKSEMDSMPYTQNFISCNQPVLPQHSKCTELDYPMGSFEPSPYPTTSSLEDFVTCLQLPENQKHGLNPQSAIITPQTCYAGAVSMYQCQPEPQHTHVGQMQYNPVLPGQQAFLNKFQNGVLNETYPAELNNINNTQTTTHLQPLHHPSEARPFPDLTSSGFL
Chain of AhR (Homo sapiens, UniProt P35869) (P27540 whole entry partner): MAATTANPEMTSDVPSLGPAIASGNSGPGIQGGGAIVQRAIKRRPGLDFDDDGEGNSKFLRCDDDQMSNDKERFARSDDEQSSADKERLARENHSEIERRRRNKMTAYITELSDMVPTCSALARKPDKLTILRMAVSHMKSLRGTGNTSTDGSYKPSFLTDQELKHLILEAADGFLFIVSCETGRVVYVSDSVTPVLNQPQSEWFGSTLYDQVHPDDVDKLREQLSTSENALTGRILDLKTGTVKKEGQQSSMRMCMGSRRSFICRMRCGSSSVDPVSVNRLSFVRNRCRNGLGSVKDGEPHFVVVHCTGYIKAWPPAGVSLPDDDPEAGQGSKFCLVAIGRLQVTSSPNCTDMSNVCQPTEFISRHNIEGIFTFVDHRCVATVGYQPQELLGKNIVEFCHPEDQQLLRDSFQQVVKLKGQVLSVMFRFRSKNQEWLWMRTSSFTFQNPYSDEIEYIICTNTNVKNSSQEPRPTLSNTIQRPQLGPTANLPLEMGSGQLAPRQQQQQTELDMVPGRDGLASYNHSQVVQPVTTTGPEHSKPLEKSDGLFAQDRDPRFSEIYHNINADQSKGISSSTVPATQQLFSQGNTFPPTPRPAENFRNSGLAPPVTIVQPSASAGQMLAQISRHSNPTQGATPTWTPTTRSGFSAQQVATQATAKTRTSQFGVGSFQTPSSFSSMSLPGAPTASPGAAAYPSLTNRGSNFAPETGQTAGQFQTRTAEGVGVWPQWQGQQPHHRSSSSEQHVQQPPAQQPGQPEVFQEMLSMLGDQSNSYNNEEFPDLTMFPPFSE
The test system of data set [13] is BP8 (AhR −/−) hepatoma cells. The experiment in a line: Cell viability MTT assay, BP8 cells. Format: cell-based, mouse. To be noted: range of concentrations, 24 and 48 hr.

Where two headings read alike, the source gives them in different places. Where only a bound is given, the exact number is not on record here.

`CN1C(=O)C(=C2Nc3ccccc3C2=NO)c2ccccc21` [13d, 1-Methylindirubin-3′-oxime]: the IC50 was 73 µM in data set [1] (Table 1, read-out: IC50 CDK1/cyclin B); 73 µM in [1] (Table 4, read-out: IC50 CDK1/cycin B); 73 µM in data set [1] (Table 5, read-out: IC50 CDK1/cyclin B); over 100 µM in data set [3] (Table 1); over 100 µM in data set [3] (Table 5); over 100 µM in data set [10] (Table 1, read-out: IC50 GSK-3 α/β). Besides, the IC50 in data set [10] (Table 4, read-out: IC50 GSK-3) was over 100 µM; in data set [10] (Table 5, read-out: IC50 GSK-3α/β), over 100 µM. Also, in [2], the “accumulation of 5L cells in G1 phase” value is listed as “very striking accumulation”. For the same molecule, the “survival of 5L cells (MTT)” value in [4] is on record as “apparently not affected”. In data set [5], the “accumulation of BP8 cells in G1 phase” value is “but not of AhR −/− cells (BP8)”. For the same molecule, the “proliferation rate of BP8 cells” value in [6] is reported as “did not effect the proliferation”. The “p27^KIP1 expression in 5L cells” value in [7] is “very effective p27^KIP1 inducers”. Besides, the concentration for a half-maximal effect (EC50) in data set [8] was 0.129 µM; in data set [12] it was 0.008 µM. In addition, in [9], the “proliferation rate of 5L cells” value is “reduced the rate of proliferation only in 5L cells”. The “level of tyrosine phosphorylation of both GSK-3 isoforms” value in [11] is “None of these changes were observed”. For the same molecule, the “survival of BP8 cells (MTT)” value in data set [13] is on record as “apparently not affected”.
